# Results from patent US6965033B2, “Bisamidate phosphonate prodrugs” (Metabasis Therapeutics, Inc., priority 1999, dated 2005).
# Tests used:
# ZDF rat = assay: Chronic Oral Efficacy in the ZDF Rat; format: in vivo
# Procedure: Methods: ZDF rats (10 weeks of age) were maintained either on powdered Purina 5008 rat chow (n=10) or the same powdered chow supplemented with 0.4% 50.6 (n=8). Blood glucose measurements were made as described in Example E at baseline and at weekly intervals thereafter for a total of 3 weeks. Statistical analysis was performed using the Student's t test. Means±standard error of the means are shown.
# [1] = Metabolism of 50.6 in rat plasma; format: in vitro ADME; conditions: 100 μM
# Procedure: (§1) The metabolism of 50.6 was evaluated in rat, monkey, and human plasma by reverse phase HPLC with use of a Beckman Ultrasphere ODS column (4.6×150 mm) equipped with an Alltech All-Guard column. The column was equilibrated with 20 mM potassium phosphate, pH 6.2 and eluted with a linear gradient of 0-60% acetonitrile over 20 minutes at a flow rate of 1.5 mL/min and at a temperature of 40° C. UV absorbance was monitored at 300 nm. […] The metabolite formed in rat plasma was collected and subjected to mass spectrum analysis at Mass Consortium Corporation (San Diego, Calif.). […] This molecular weight is consistent with that of a monophosphoramidate intermediate. This intermediate is likely formed via a reaction mechanism in which the prodrug first undergoes full de-esterification followed by intramolecular, hydrolytic cleavage of one of the amino acyl substituents. Formation of the postulated monophosphoramidate intermediate was confirmed following the synthesis of a synthetic standard, Compound C. The standard had the identical HPLC and UV profile as the metabolite formed in plasma samples.
# [2] = system: Human Liver Phosphoramidase; assay: Structure Activity Relationship of Human Liver Phosphoramidase (human liver homogenate); format: in vitro ADME; conditions: pH 7.4
# Procedure: Human liver, purchased from the Anatomic Gift Foundation (Laurel, Md.), was homogenized in Krebs-bicarbonate buffer and clarified by a slow-speed centrifugation. Prodrug metabolism was evaluated in reaction mixtures containing human liver homogenate (4 mgs protein), 50 mM Tris-HCl, pH 7.4, 10 mM MgCl2, and 10 mM dithiothreitol. At various time intervals over the course of 2 hours, aliquots were removed from the reaction mixtures and deproteinated by addition of methanol to 60%. Following clarification by centrifugation, metabolites were analyzed by reverse phase HPLC with use of a Beckman Ultrasphere ODS column (4.6×150 mm) equipped with an Alltech All-Guard column. The column was equilibrated with 20 mM potassium phosphate, pH 6.2 and eluted with a linear gradient of 0-60% acetonitrile over 20 minutes at a flow rate of 1.5 mL/min and at a temperature of 40° C. UV absorbance was monitored at 300 nm. Most of the prodrugs evaluated were metabolized via a non-rate limiting, esterase-catalyzed step to their monophosphoramidate form within 5 minutes of incubation. The rate of phosphonic acid appearance was therefore essentially a reflection of the rate of the final […] cleavage step. Results for representative prodrugs for which the esterase-catalyzed step was non-rate limiting are shown below: […]
# human hepatocytes = assay: Metabolism of 50.6 in Human Hepatocytes; format: in vitro ADME; conditions: 10 μM
# Procedure: Cryopreserved human hepatocytes were obtained from In Vitro Technologies and thawed according to the vendor's recommendations. Cells were incubated at 37° C. in a Krebs-bicarbonate based buffer containing 50.6 at 10 μM. At various time points over the course of 4 hours, aliquots of cells were removed and extracted by addition of methanol to 60%. Cell extracts were clarified by centrifugation and analyzed by reverse phase HPLC with use of a Beckman Ultrasphere ODS column (4.6×150 mm) equipped with an Alltech All-Guard column. […]. Disappearance of 50.6 was rapid and essentially complete within 60 minutes of incubation. […] The initial rate of 3.1 formation was 24 pmol/million cells/minute. […]
# [3] = system: Zucker Diabetic Fatty (ZDF rat); assay: Acute Oral Efficacy in the ZDF Rat; format: in vivo
# Procedure: Methods: ZDF rats were purchased from Genetics Inc (Indianapolis, Ind.) at 8 weeks of age. Animals were maintained under standard vivarium conditions and provided with Purina 5008 chow and water ad libitum. At 10-12 weeks of age, rats with blood glucose levels>500 mg/dl were selected and dosed orally either with vehicle (PEG 400), or prodrug (60 mg/kg). Blood glucose levels were monitored at regular intervals for 6 hours following dosing. Blood samples were taken from tail vein nicks and analyzed by means of a HemoCue glucose analyzer (Hemocue, Mission Viejo, Calif.). Statistical analysis was performed using the Student's t test. Means±standard error of the means are shown.
# [4] = Metabolism of 50.6 in monkey plasma; format: in vitro ADME; conditions: 100 μM
# Procedure: as §1
# [5] = Metabolism of 50.6 in human plasma; format: in vitro ADME; conditions: 100 μM
# Procedure: as §1
smiles,measurement,setting,value
"CCOC(=O)[C@H](C)NP(=O)(N[C@@H](C)C(=O)OCC)c1ccc(-c2nc(N)sc2CC(C)C)o1 [Compound 50.6, 2-Amino-5-isobutyl-4-{2-[5-(N,N′-bis((S)-1-ethoxycarbonyl)ethyl)phosphonamido]furanyl}thiazole]","Blood glucose, t21 days",ZDF rat; 21 days on chow supplemented with 0.4% drug,436 ± 41 mg/dL
same,"Blood Glucose, Tbaseline","ZDF rat; baseline, chow with 0.4% drug group",674 ± 20 mg/dL
same,metabolites formed in plasma,[1],single metabolite
same,"Phosphoramidase Activity (Rate of 3.1 or 3.58 production, nmoles/mn/mg liver protein)",[2],0.022 nmoles/mn/mg liver protein
same,time to essentially complete disappearance,"human hepatocytes; cryopreserved human hepatocytes, 37° C.",≤ 60 min
same,initial rate of 3.1 formation,human hepatocytes; human hepatocytes,24 pmol/million cells/minute
same,metabolites detected,human hepatocytes; human hepatocytes,Compound C and 3.1
same,"Blood Glucose, T6h",[3]; 6 h after 60 mg/kg oral,406 ± 12 mg/dL
same,"Blood Glucose, % Change","[3]; baseline to 6 h, 60 mg/kg oral",−25%
same,"Blood Glucose, Tbaseline","[3]; baseline, 60 mg/kg oral group",544 ± 25 mg/dL
same,metabolites formed in plasma,[4],single metabolite
same,metabolites formed in plasma,[5],single metabolite
